Measured values taken from ChEMBL document CHEMBL1201862, “PubChem BioAssay data set” (2004).
The source made the active and inactive calls.

What was measured:
[1] = molecular target: T1, Streptokinase A (Streptococcus pyogenes serotype M1, UniProt P10520); experiment: viability-normalized secreted streptokinase activity reduction – plasminogen activation absorbance, OD405, dose response (AID 1914); format: functional, Streptococcus pyogenes M1 GAS;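 also: secreted streptokinase activity via plasminogen activation per viability signal from cell pellet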
T1 sequence (P10520 whole entry): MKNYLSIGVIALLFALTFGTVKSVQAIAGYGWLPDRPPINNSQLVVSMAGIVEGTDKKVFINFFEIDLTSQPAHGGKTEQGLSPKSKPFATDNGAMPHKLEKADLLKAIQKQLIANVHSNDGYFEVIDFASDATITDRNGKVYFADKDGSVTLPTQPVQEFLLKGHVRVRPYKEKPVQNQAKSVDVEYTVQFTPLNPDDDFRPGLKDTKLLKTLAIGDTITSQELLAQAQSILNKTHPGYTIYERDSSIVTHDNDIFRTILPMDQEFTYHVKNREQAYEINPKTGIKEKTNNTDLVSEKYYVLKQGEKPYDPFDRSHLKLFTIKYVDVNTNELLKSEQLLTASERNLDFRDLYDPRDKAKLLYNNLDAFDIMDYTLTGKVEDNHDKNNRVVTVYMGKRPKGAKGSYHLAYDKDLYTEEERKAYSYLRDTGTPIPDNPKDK

[2] = test system: Streptococcus; experiment: GAS UMAA2166 growth inhibition – luminescence, BacTiterGlo, counter-screen for streptokinase expression inhibitor project, dose response (AID 1915); format: functional, organism-based;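 also: potency for reduction of bacterial viability or growth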
[3] = test system: Streptococcus sp. 'group A'; experiment: Streptococcus pyogenes SK(-)GAS viability under kanamycin – luminescence, BacTiterGlo, confirmation, counter-screen for streptokinase expression inhibitor project, dose response (AID 1900); format: functional, organism-based
[4] = molecular target: T2, Protein RecA (Mycobacterium tuberculosis, UniProt P9WHJ3); experiment: Fluorescence Cell-Free Homogeneous Dose Retest to Identify Inhibitors of RecA-Intein Splicing Activity. [Related pubchem assays (depositor defined):AID2097, AID2223, AID489010, AID492950]; format: functional
T2 sequence (P9WHJ3 whole entry): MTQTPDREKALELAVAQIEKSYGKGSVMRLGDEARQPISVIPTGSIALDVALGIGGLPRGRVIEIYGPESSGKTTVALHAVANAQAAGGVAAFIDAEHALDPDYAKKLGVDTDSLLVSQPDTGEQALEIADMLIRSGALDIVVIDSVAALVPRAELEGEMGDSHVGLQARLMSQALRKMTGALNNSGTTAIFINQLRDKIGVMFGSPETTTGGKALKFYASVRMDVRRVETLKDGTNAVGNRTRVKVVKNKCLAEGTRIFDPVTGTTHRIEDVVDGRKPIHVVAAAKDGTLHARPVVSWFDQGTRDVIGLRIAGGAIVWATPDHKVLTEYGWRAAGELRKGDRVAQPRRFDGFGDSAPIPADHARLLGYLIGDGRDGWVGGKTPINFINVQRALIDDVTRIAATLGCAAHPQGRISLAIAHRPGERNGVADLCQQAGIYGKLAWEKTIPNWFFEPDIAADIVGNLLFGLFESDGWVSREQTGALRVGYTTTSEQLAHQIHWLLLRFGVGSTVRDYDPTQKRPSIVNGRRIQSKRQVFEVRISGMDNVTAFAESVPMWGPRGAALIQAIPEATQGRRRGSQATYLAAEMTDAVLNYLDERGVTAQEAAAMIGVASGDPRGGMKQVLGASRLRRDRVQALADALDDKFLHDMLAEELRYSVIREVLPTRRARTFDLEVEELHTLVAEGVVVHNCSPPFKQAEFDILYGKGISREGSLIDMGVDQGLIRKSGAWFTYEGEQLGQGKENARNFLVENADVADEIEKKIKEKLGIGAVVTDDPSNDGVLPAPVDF

[5] = molecular target: T3, Replicative DNA helicase DnaB (Mycobacterium tuberculosis, UniProt P9WMR3); experiment: DnaB intein splicing inhibitors, dose response, biochemical, cell-free fluorescence (AID 449749); format: functional
T3 sequence (P9WMR3 whole entry): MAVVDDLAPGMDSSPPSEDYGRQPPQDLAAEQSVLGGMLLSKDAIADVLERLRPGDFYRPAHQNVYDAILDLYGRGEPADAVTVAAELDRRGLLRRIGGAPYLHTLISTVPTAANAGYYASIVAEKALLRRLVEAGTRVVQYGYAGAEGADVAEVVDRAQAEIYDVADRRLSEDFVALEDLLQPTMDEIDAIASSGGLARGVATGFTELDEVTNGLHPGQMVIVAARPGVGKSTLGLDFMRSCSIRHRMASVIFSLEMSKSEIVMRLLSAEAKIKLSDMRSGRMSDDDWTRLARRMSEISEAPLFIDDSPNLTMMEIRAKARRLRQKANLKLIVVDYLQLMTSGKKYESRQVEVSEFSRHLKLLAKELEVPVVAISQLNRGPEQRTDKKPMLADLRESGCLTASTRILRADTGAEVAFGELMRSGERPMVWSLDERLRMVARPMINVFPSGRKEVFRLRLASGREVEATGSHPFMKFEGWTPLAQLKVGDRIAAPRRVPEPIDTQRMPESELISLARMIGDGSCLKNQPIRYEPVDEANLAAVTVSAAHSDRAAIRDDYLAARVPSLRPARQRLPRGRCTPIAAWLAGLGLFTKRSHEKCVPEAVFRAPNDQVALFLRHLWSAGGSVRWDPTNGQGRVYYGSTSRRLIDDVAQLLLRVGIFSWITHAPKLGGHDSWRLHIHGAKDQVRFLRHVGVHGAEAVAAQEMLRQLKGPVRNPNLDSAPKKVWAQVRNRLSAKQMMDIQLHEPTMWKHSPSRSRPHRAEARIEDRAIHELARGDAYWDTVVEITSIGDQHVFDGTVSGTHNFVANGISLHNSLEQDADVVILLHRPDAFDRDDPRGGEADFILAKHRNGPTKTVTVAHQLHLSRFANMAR

[6] = molecular target: Cytochrome P450 2C19 (Homo sapiens, UniProt P33261); experiment: Cytochrome panel assay with activity outcomes. Panel member name: p450-cyp2c19 Compounds with AC50 equal or less than 10 uM are considered active; format: functional
Cytochrome P450 2C19, sequence (P33261 whole entry): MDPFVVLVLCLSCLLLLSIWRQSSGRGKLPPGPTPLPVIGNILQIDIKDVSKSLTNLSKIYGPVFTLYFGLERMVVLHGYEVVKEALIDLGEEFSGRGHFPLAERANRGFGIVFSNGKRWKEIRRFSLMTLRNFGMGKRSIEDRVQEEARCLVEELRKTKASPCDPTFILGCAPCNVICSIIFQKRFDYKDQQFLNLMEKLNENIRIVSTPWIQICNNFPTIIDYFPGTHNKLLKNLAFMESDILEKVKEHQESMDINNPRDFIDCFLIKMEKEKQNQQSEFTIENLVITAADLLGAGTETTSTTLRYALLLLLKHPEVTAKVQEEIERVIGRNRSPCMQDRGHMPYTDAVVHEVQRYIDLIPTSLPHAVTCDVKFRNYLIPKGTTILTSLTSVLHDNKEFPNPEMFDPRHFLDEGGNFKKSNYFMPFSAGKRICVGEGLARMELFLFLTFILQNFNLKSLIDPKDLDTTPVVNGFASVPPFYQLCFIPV

[7] = viability of uninfected HEp-2 cells – cell-based, HTS, cytotoxicity control for RSV inhibitor project, dose response (AID 2410); format: functional; conditions: human respiratory syncytial virus
[8] = molecular target: Cytochrome P450 2D6 (Homo sapiens, UniProt P10635)
Cytochrome P450 2D6, sequence (P10635 whole entry): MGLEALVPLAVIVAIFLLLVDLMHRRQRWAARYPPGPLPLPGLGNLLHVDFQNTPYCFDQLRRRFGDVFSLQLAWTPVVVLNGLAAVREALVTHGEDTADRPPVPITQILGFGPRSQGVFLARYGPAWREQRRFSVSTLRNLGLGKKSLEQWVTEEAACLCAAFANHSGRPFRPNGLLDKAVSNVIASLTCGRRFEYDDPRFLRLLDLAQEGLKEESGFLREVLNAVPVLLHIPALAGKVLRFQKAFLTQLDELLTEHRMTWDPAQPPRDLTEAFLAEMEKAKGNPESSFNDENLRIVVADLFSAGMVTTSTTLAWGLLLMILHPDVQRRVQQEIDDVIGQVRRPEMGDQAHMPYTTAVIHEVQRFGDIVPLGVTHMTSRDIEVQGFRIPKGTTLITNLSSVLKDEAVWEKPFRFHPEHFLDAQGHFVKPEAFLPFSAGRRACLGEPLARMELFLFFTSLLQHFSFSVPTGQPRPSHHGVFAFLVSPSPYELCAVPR

[9] = molecular target: T4, Cytochrome P450 1A2 (Homo sapiens, UniProt P05177);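 also: PubChem cytochrome P450 panel assay, CYP1A2 panel member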
T4 sequence (P05177 whole entry): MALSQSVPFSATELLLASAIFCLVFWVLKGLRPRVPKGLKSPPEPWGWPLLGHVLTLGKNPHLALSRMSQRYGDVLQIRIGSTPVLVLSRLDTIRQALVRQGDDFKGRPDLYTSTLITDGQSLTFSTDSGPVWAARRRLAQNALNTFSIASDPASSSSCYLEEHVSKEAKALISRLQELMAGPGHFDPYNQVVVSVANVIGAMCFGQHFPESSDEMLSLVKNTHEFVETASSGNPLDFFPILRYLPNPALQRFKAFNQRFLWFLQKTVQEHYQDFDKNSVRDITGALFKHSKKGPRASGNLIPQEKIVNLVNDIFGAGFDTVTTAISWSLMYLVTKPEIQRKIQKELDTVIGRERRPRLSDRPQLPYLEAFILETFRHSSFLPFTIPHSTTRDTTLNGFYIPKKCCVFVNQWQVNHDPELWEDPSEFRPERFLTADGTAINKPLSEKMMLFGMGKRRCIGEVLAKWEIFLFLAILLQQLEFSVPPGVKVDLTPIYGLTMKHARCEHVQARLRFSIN

[10] = molecular target: Cytochrome P450 2C9 (Homo sapiens, UniProt P11712)
Cytochrome P450 2C9, sequence (P11712 whole entry): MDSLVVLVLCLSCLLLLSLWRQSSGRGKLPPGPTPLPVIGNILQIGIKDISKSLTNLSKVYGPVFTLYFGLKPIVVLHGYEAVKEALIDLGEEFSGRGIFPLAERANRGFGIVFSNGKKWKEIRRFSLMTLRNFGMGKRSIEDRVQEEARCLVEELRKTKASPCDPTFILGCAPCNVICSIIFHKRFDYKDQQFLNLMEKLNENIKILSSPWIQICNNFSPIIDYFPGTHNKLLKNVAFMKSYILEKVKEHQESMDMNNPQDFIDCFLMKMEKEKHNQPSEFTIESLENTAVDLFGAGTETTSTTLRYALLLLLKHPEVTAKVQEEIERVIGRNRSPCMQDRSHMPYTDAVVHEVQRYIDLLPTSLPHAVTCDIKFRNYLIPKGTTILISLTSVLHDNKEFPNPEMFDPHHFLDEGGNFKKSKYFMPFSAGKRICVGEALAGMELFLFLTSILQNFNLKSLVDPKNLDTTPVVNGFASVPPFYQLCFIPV

## COc1cccc(-c2cc(C(F)(F)F)nc(N3CCC(C)CC3)n2)c1
[1]
  EC50: 97.6 µM (inconclusive)
[2]
  EC50: 13.2 µM (active)
[3]
  EC50: 5.93 µM (active)

## O=C(Nc1ccn(Cc2c(F)c(F)cc(F)c2F)n1)c1ccc(COc2ccc(Cl)cc2Cl)o1
[1]
  EC50: > 150 µM (not active)
[2]
  EC50: > 150 µM (not active)
[3]
  EC50: 36.3 µM (active)

## CCCc1nn(C)c2c1C(c1ccncc1)C(C#N)=C(N)O2 (stereo unspecified)
[4]
  EC50: 3.79 µM (active)
[5]
  AC50: 9.7 µM (active)

## COC(=O)c1ccccc1NC(=O)c1ccc(F)cc1
[6]
  AC50: 25.1 µM (inconclusive)

## CCOC(=O)c1c(NC(=O)CSc2nnc(-c3c[nH]c4ccccc34)n2CCOC)sc2c1CCCC2
[4]
  EC50: > 380 µM (inactive)
[5]
  AC50: 20.2 µM (active)

## COc1ccc([C@H]2CC(=O)C=C(c3ccc(Cl)c(C(F)(F)F)c3)C2)cc1
[7]
  CC50: 12.9 µM (active)

## CCOC(=O)N1CCN(c2nc(-c3cccs3)nc3ccccc23)CC1
[7]
  CC50: > 50 µM (active)

## O=C(Cc1csc(NC(=O)Nc2cccc(Cl)c2)n1)NCc1ccccn1
[1]
  EC50: > 150 µM (not active)
[2]
  EC50: > 150 µM (not active)
[3]
  EC50: 7.28 µM (active)

## Cc1ccc(NC(=O)CSc2ncc(-c3ccccc3)n2C(=O)c2ccccc2)cc1
[4]
  EC50: 1.77 µM (active)
[5]
  AC50: 2.56 µM (active)

## CC1Cc2ccccc2N1C(=O)Cn1c(=O)cc(O)c2ccccc21 (stereo unspecified)
[8]
  AC50: 39.8 µM (inconclusive)
[6]
  AC50: 22.4 µM (inconclusive)

## c1ccc2c(NC3CC3)nc(-c3ccoc3)nc2c1
[6]
  AC50: 25.1 µM (inconclusive)

## O=C(CN1c2ccccc2Sc2ccccc21)NNC(=O)Nc1ccc(Cl)cc1
[7]
  CC50: > 50 µM (active)

## CCO/C(O)=C1\C(C)=NC2=C(C(=O)CCC2)C1c1cn(Cc2ccc(Cl)cc2Cl)nc1-c1ccccc1 (stereo unspecified)
[7]
  CC50: 30.6 µM (active)

## CNc1ncncc1-c1ccccc1C(F)(F)F
[8]
  AC50: 39.8 µM (inconclusive)
[6]
  AC50: 39.8 µM (inconclusive)

## CC/C(O)=C(\C#N)c1nnc2n1CCCCC2
[9]
  AC50: 14.1 µM (inconclusive)
[6]
  AC50: 1 µM (inconclusive)

## COc1ccc(Br)cc1S(=O)(=O)Nc1nnc[nH]1
[1]
  EC50: > 150 µM (not active)

## c1ccc2c(c1)-c1nc3ccccc3cc1[C@H]2N1CCOCC1
[10]
  AC50: 6.31 µM (inconclusive)
[6]
  AC50: 3.16 µM (inconclusive)

## c1ccc(CCCNc2nnnc3ccccc23)cc1
[6]
  AC50: 3.16 µM (inconclusive)
